Drawing on patent publication US5006570A, “Dihydrobenzofuran- and chroman-carboxamide derivatives, processes for the preparation thereof and use thereof as neuroleptics” (Laboratoires Delagrange, priority 1986, dated 1991), this text covers ED50, LD50 and mortality for seven molecules.

Like-named read-outs stand apart in the source and are kept apart here.

In data set [1] the test system is Apomorphine stereotypy. Briefly: Antagonism of apomorphine stereotypy in rats (1.25 mg/kg IV, Janssen). The data set is classed as in vivo. Particulars: Rattus norvegicus, sc, compound s.c. 60 minutes before apomorphine 1.25 mg/kg IV, read-out: ID50 S.C., Apomorphine stereotypy (1.25 mg/kg IV). The text has this: (§1) Apomorphine and amphetamine induce stereotyped movements in rats which are antagonized by neuroleptics. […]
(§2) These different experimental conditions made it possible to establish the doses which antagonize stereotypy by 50% (ID50), judged on the basis of the various components of the movements which were observed.

Data set [2] can be described thus: Acute toxicity in mice (LD50, Bliss' method). Particulars: mouse, in vivo. The method, then:
Acute toxicity was studied in mice, the compounds being administered intravenously, subcutaneously, intraperitoneally and orally.
The doses causing the death of 50% of the animals (LD50) were determined by Bliss' method, giving the following results: […]

The subject of data set [3] is apomorphine-induced climbing behavior. Briefly: Antagonism of apomorphine-induced climbing behavior in mice. Type of data set: in vivo. The conditions noted are these: Mus musculus, ip, compound i.p. 30 minutes before apomorphine 1 mg/kg s.c., read-out: ID50 I.P., apomorphine-induced climbing behavior. The method, then:
Another test using apomorphine was applied, based on the observation of the climbing behavior which it induces in mice, this behavior being antagonized by neuroleptics, according to Puech (Eur. J. Pharmacol. 1978, 50, 291-300).
The compound was administered intraperitoneally 30 minutes before the apomorphine (1 mg/kg subcutaneously), and the antagonism was assessed 45 to 50 minutes after the administration of the compound.

Data set [4] deals with catalepsy in rats. Briefly: Catalepsy in rats. The data set is classed as in vivo. Particulars: Rattus norvegicus, sc, subcutaneously, at the peak of effect. As to the method: The catalepsy-inducing function of the compounds of the invention was studied in rats. Each of the compounds was administered subcutaneously, at increasing doses, to groups of 10 rats (1 group for each dose). […] The dose giving rise to catalepsy in 50% of the animals (ED50) was determined graphically, at the peak of effect.

Data set [5] has as its system spontaneous motor function in mice. Briefly: Inhibition of spontaneous motor function in mice, Winter and Flataker test (photoelectric method). The data set is classed as in vivo. Particulars: Mus musculus. The text has this: (§3) Thus, an inhibitory effect on spontaneous motor function in mice, a catalepsy-inducing power in rats, and antagonism towards certain apomorphine- and amphetamine-induced behavioural effects were investigated, in particular.
(§4) Regarding the spontaneous motor function in mice, an inhibitory effect of the inventive compounds was effectively observed and recorded by a photoelectric method, according to a technique similar to that of Winter and Flataker (J. Pharmacol. Exp. Ther. 1951, 101, 156-162) and by measurement of activity using an Animex apparatus.
(§5) The compounds were administered intraperitoneally or orally, respectively, 15 or 60 minutes before the recording according to the method adopted.
(§6) The values of the 50% inhibitory doses of motor function ID50 of the compounds are collected in the following table: […]

The test system of data set [6] is dexamphetamine stereotypy. Briefly: Antagonism of dexamphetamine stereotypy in rats (Janssen amphetamine test). The data set is classed as in vivo. The conditions noted are these: Rattus norvegicus, sc, 1 h, compound s.c. simultaneously with dexamphetamine 10 mg/kg i.v., effect at 60 minutes, read-out: ID50 S.C., Janssen amphetamine test. As to the method:
Apomorphine and amphetamine induce stereotyped movements in rats which are antagonized by neuroleptics. Different doses of apomorphine administered by different routes were applied to produce these movements. In the test using dexamphetamine, carried out according to the technique of Janssen (Arz. Forsch. 1961, 11, 932-938), 10 mg/kg of dexamphetamine were injected intravenously, the test product being injected simultaneously subcutaneously, and the effect being measured 60 minutes after these injections. These different experimental conditions made it possible to establish the doses which antagonize stereotypy by 50% (ID50), judged on the basis of the various components of the movements which were observed.

For data set [7], the system named is Apomorphine stereotypy. Briefly: Antagonism of apomorphine stereotypy in rats (0.5 mg/kg SC, derived from Puech). Type of data set: in vivo. Particulars: Rattus norvegicus, ip, compound i.p. 30 minutes before apomorphine 0.5 mg/kg SC, read-out: ID50 I.P., Apomorphine stereotypy (0.5 mg/kg SC).
Text: as §1, §2

For data set [8], the system named is spontaneous motor function in mice. Briefly: Inhibition of spontaneous motor function in mice, Animex activity measurement test. Type of data set: in vivo. Particulars: Mus musculus.
Text: as §3, §4, §5, §6

[9] abbreviates: ip, read-out: Lethal doses50 i.p.
Where [10] appears, read: iv, read-out: Lethal doses50 i.v.
[11] abbreviates: po, orally, read-out: Lethal doses50 orally.
The mark [12] stands for this setting: sc, read-out: Lethal doses50 s.c.
Setting [13] is: ip, read-out: ID50 i.p., Winter and Flataker test.
The mark [14] stands for this setting: po, read-out: ID50 p.o., Winter and Flataker test.
Where [15] appears, read: ip, read-out: ID50 i.p., Animex activity measurement test.
Where [16] appears, read: po, read-out: ID50 p.o., Animex activity measurement test.

Turning to `CNS(=O)(=O)c1cc2c(c(C(=O)NCC3CCCN3CC3=CCCCC3)c1)OC(C)C2` (centres unmarked) [Ex 1, N-(1-Cyclohexenylmethyl-2-pyrrolidinylmethyl)-5-methylsulphamoyl-2-methyl-2,3-dihydrobenzofuran-7-carboxamide], the ED50 was 0.375 mg/kg in data set [1]; 0.55 to 0.63 mg/kg in data set [3]; 6.6 mg/kg in data set [4]; 1.8 mg/kg in data set [5] (setting [13]); 12.4 to 13.2 mg/kg in data set [5] (setting [14]); 0.285 mg/kg in data set [6]. The ED50 in data set [7] fell in the range of 0.64 to 0.65 mg/kg; in data set [8] (setting [15]), 2.15 to 3.4 mg/kg; in data set [8] (setting [16]) it was 19.2 to 22.4 mg/kg. For the same molecule, the LD50 fell in the range of 134 to 152 mg/kg in data set [2] (setting [9]), 30.5 to 35.2 mg/kg in data set [2] (setting [10]), 259 to 295 mg/kg in data set [2] (setting [11]) and 316 to 318 mg/kg in data set [2] (setting [12]).

Take `CNS(=O)(=O)c1cc2c(c(C(=O)NCC3CCCN3CC3=CCCCC3)c1)OCCC2` (centres unmarked) [Ex 2, N-(1-Cyclohexenylmethyl-2-pyrrolidinylmethyl)-6-methylsulphamoylchroman-8-carboxamide]: the ED50 is 0.73 mg/kg in data set [1]; 1.2 to 1.24 mg/kg in data set [3]; 17.6 mg/kg in data set [4]; 6.2 mg/kg in data set [5] (setting [13]); 31.5 mg/kg in data set [5] (setting [14]); 0.77 mg/kg in data set [6]. Further, the values for the ED50 in data set [7], in data set [8] (setting [15]) and in data set [8] (setting [16]) were 2.5 to 2.7 mg/kg, 7.5 mg/kg and 31.5 mg/kg, respectively. Moreover, the LD50 was in the range of 167 to 172 mg/kg in data set [2] (setting [9]), 42.6 to 43.7 mg/kg in data set [2] (setting [10]), 342 to 354 mg/kg in data set [2] (setting [11]) and 406 to 408 mg/kg in data set [2] (setting [12]).

Regarding `CCS(=O)(=O)c1cc2c(c(C(=O)NCC3CCCN3CC3CC3)c1)OC(C)C2.Cl` (centres unmarked) [Ex 9, N-(1-Cyclopropylmethyl-2-pyrrolidinylmethyl)-5-ethylsulphonyl-2-methyl-2,3-dihydrobenzofuran-7-carboxamide hydrochloride], the ED50 in data set [1] was 3.6 mg/kg; in data set [3], 0.4 to 0.55 mg/kg; in data set [4], 20.7 mg/kg; in data set [5] (setting [13]), 3.2 mg/kg; in data set [5] (setting [14]), 31.5 mg/kg; in data set [6] it was 1.1 mg/kg. The ED50 was 1.2 to 1.6 mg/kg in data set [7], 3 mg/kg in data set [8] (setting [15]) and 23.4 mg/kg in data set [8] (setting [16]). Further, the LD50 in data set [2] (setting [9]) was 211 to 213 mg/kg; in data set [2] (setting [10]), 68.8 to 70.2 mg/kg; in data set [2] (setting [11]) it was 390 to 391 mg/kg; in data set [2] (setting [12]), 440 to 462 mg/kg.

Take `CCS(=O)(=O)c1cc2c(c(C(=O)NCC3CCCN3CC3=CCCCC3)c1)OCCC2` (centres unmarked) [Ex 11, N-(1-Cyclohexenylmethyl-2-pyrrolidinylmethyl)-6-ethylsulphonylchroman-8-carboxamide]: the ED50 in data set [1] is 0.134 mg/kg; in data set [3], 0.105 to 0.126 mg/kg; in data set [4], 1.66 mg/kg; in data set [5] (setting [13]), 1.3 mg/kg; in data set [5] (setting [14]), 16.6 mg/kg; in data set [6] it was 0.066 mg/kg. The figures for the ED50 in data set [7], in data set [8] (setting [15]) and in data set [8] (setting [16]) were 0.18 to 0.23 mg/kg, 1.22 mg/kg and 16.6 mg/kg, respectively. In addition, the LD50 in data set [2] (setting [9]) fell in the range of 125 to 127 mg/kg; in data set [2] (setting [10]), 28 to 28.6 mg/kg; in data set [2] (setting [11]), 149 to 163 mg/kg; in data set [2] (setting [12]), 141 to 145 mg/kg.

For `O=C(NCC1CCCN1CC1=CCCCC1)c1cc(Cl)cc2c1OCCC2.O=C(O)/C=C/C(=O)O` (centres unmarked) [Ex 13, N-(1-Cyclohexenylmethyl-2-pyrrolidinylmethyl)-6-chlorochroman-8-carboxamide fumarate], the ED50 in data set [1] is 0.22 mg/kg; in data set [3], 0.32 to 0.35 mg/kg; in data set [4], 1.5 mg/kg; in data set [5] (setting [13]) it was 1.96 mg/kg; in data set [5] (setting [14]) it was 20.9 mg/kg; in data set [6] it was 0.15 mg/kg. Moreover, the ED50 in data set [7] was 0.38 to 0.44 mg/kg; in data set [8] (setting [15]), 3 mg/kg; in data set [8] (setting [16]), 22.7 mg/kg. The LD50 in data set [2] (setting [9]) was 120 mg/kg; in data set [2] (setting [11]), 422 to 473 mg/kg. The mortality in data set [2] (sc, at 900 mg/kg, read-out: deaths of animals at 900 mg/kg s.c.) was 0%.

As for `O=C(NCC1CCCN1CC1=CCCCC1)c1cc(Cl)cc2c1OCC2` (centres unmarked) [Ex 14, N-(1-Cyclohexenylmethyl-2-pyrrolidinylmethyl)-5-chloro-2,3-dihydrobenzofuran-7-carboxamide], the ED50 was 0.29 mg/kg in data set [1]; 0.27 to 0.29 mg/kg in data set [3]; 2.7 mg/kg in data set [4]; 2.1 mg/kg in data set [5] (setting [13]); 27 mg/kg in data set [5] (setting [14]); 0.12 mg/kg in data set [6]. In addition, the ED50 was 0.31 to 0.41 mg/kg in data set [7], 1.7 mg/kg in data set [8] (setting [15]) and 25 mg/kg in data set [8] (setting [16]). In addition, the LD50 in data set [2] (setting [9]) is 69.6 to 83.3 mg/kg; in data set [2] (setting [10]) it was 24.8 mg/kg; in data set [2] (setting [11]), 350 to 354 mg/kg; in data set [2] (setting [12]), 412 to 434 mg/kg.

Turning to `CC1Cc2cc(Cl)cc(C(=O)NCC3CCCN3CC3=CCCCC3)c2O1` (centres unmarked) [Ex 15, Neutral ethanedisulphonate of N-(1-cyclohexenylmethyl-2-pyrrolidinylmethyl)-5-chloro-2-methyl-2,3-dihydrobenzofuran-7-carboxamide], the ED50 in data set [1] was 0.41 mg/kg; in data set [3], 0.28 to 0.34 mg/kg; in data set [4], 1.35 mg/kg; in data set [5] (setting [13]), 3.5 mg/kg; in data set [5] (setting [14]) it was 43.4 mg/kg; in data set [6] it was 0.18 mg/kg. The ED50 in data set [7] was 0.58 to 0.59 mg/kg; in data set [8] (setting [15]), 2.2 mg/kg; in data set [8] (setting [16]) it was 23.2 mg/kg. Further, the LD50 was 232 to 234 mg/kg in data set [2] (setting [9]), 31.1 to 34.7 mg/kg in data set [2] (setting [10]) and 1410 mg/kg in data set [2] (setting [12]).
